Measured values as given in ChEMBL document CHEMBL1201862, “PubChem BioAssay data set” (2004).
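In this assay, cells in 96-well plates receive the compound at five concentrations for 48 hours. Endpoints are linearly interpolated between the surrounding concentrations. Here, GI50 denotes the concentration required for 50% inhibition of growth.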 Active and inactive are the calls of the source. Rule as the data show it: active = GI50 up to about 1.1 µM and inactive = higher.

Experiments:
Assay in all cases: NCI tumour cell line growth inhibition, 48 h
SR = system: SR
SNB-75 = system: SNB-75
K562 = system: K562
EKVX = system: EKVX
786-0 = system: 786-0
TK-10 = system: TK-10
SF-295 = system: SF-295
HT-29 = system: HT-29
SK-MEL-5 = system: SK-MEL-5
MDA-N = system: MDA-N
HCT-116 = system: HCT-116
OVCAR-4 = system: OVCAR-4
SK-MEL-28 = system: SK-MEL-28
A498 = system: A498
HL-60 = system: HL-60
MOLT-4 = system: MOLT-4
NCI-H460 = system: NCI-H460
SF-539 = system: SF-539
HOP-92 = system: HOP-92
RPMI-8226 = system: RPMI-8226
NCI/ADR-RES = system: NCI/ADR-RES
CAKI-1 = system: CAKI-1
UO-31 = system: UO-31
OVCAR-3 = system: OVCAR-3
MDA-MB-231 = system: MDA-MB-231
NCI-H226 = system: NCI-H226
IGROV-1 = system: IGROV-1
A549 = system: A549
SN12C = system: SN12C
HCT-15 = system: HCT-15
ACHN = system: ACHN
UACC-62 = system: UACC-62
SNB-19 = system: SNB-19
SW-620 = system: SW-620
OVCAR-8 = system: OVCAR-8
U-251 = system: U-251
PC-3 = system: PC-3
SK-MEL-2 = system: SK-MEL-2
DU-145 = system: DU-145
SK-OV-3 = system: SK-OV-3
CCRF-CEM = system: CCRF-CEM
BT-549 = system: BT-549
HCC 2998 = system: HCC 2998
SF-268 = system: SF-268
RXF 393 = system: RXF 393
UACC-257 = system: UACC-257
OVCAR-5 = system: OVCAR-5
NCI-H522 = system: NCI-H522
KM12 = system: KM12
MCF7 = system: MCF7
M14 = system: M14
NCI-H23 = system: NCI-H23
T47D = system: T47D
MDA-MB-435 = system: MDA-MB-435
Hs-578T = system: Hs-578T
HOP-62 = system: HOP-62
LOX IMVI = system: LOX IMVI
Malme-3M = system: Malme-3M
COLO 205 = system: COLO 205

SMILES: NS(=O)(=O)c1ccc(NC(=O)N/N=C/c2ccccc2O)cc1
- GI50 (SR): 22.2 µM (inactive)
- GI50 (SNB-75): 56.9 µM (inactive)
- GI50 (K562): 40.8 µM (inactive)
- GI50 (EKVX): > 100 µM (inactive)
- GI50 (786-0): 73.8 µM (inactive)
- GI50 (TK-10): > 100 µM (inactive)
- GI50 (SF-295): 67.8 µM (inactive)
- GI50 (HT-29): 45.5 µM (inactive)
- GI50 (SK-MEL-5): 46.3 µM (inactive)
- GI50 (MDA-N): 22.1 µM (inactive)
- GI50 (HCT-116): 48.2 µM (inactive)
- GI50 (OVCAR-4): > 100 µM (inactive)
- GI50 (SK-MEL-28): 85.1 µM (inactive)
- GI50 (A498): > 100 µM (inactive)
- GI50 (HL-60): 27.2 µM (inactive)
- GI50 (MOLT-4): 37.7 µM (inactive)
- GI50 (NCI-H460): 67.9 µM (inactive)
- GI50 (SF-539): 41.9 µM (inactive)
- GI50 (HOP-92): 94.4 µM (inactive)
- GI50 (RPMI-8226): > 100 µM (inactive)
- GI50 (NCI/ADR-RES): 68.4 µM (inactive)
- GI50 (CAKI-1): 94.4 µM (inactive)
- GI50 (UO-31): 60.7 µM (inactive)
- GI50 (OVCAR-3): 42 µM (inactive)
- GI50 (MDA-MB-231): > 100 µM (inactive)
- GI50 (NCI-H226): 66.1 µM (inactive)
- GI50 (IGROV-1): 58.7 µM (inactive)
- GI50 (A549): > 100 µM (inactive)
- GI50 (SN12C): 85.3 µM (inactive)
- GI50 (HCT-15): 48 µM
- GI50 (ACHN): > 100 µM (inactive)
- GI50 (UACC-62): 60.4 µM (inactive)
- GI50 (SNB-19): 38.6 µM (inactive)
- GI50 (SW-620): 74.3 µM (inactive)
- GI50 (OVCAR-8): 45.1 µM (inactive)
- GI50 (U-251): 50.1 µM (inactive)
- GI50 (PC-3): > 100 µM (inactive)
- GI50 (SK-MEL-2): 42 µM (inactive)
- GI50 (DU-145): > 100 µM (inactive)
- GI50 (SK-OV-3): 81.5 µM (inactive)
- GI50 (CCRF-CEM): 36.1 µM (inactive)
- GI50 (BT-549): 43.8 µM (inactive)
- GI50 (HCC 2998): 40.7 µM (inactive)
- GI50 (SF-268): 49 µM (inactive)
- GI50 (RXF 393): > 100 µM (inactive)
- GI50 (UACC-257): 58.6 µM (inactive)
- GI50 (OVCAR-5): > 100 µM (inactive)
- GI50 (NCI-H522): 22.4 µM (inactive)
- GI50 (KM12): 33.7 µM (inactive)
- GI50 (MCF7): 58.2 µM (inactive)
- GI50 (M14): 36.8 µM (inactive)
- GI50 (NCI-H23): 80.7 µM (inactive)
- GI50 (T47D): 88.7 µM (inactive)
- GI50 (MDA-MB-435): 16.4 µM (inactive)
- GI50 (Hs-578T): 60.5 µM (inactive)
- GI50 (HOP-62): 50.7 µM (inactive)
- GI50 (LOX IMVI): 47.4 µM (inactive)
- GI50 (Malme-3M): 74.3 µM (inactive)
- GI50 (COLO 205): 35.5 µM (inactive)

SMILES: CC[C@@]1(O)C(=O)OCc2c1cc1n(c2=O)Cc2c-1nc1ccccc1c2/C=N\NC(=O)C[n+]1ccccc1
- GI50 (SR): 0.0411 µM (active)
- GI50 (SNB-75): 0.23 µM (active)
- GI50 (K562): 1.02 µM (active)
- GI50 (EKVX): > 28.1 µM (inactive)
- GI50 (786-0): 0.231 µM (active)
- GI50 (TK-10): 20.5 µM (inactive)
- GI50 (SF-295): 0.247 µM (active)
- GI50 (HT-29): 2.33 µM (inactive)
- GI50 (SK-MEL-5): 0.366 µM (active)
- GI50 (MDA-N): 4.02 µM (inactive)
- GI50 (HCT-116): 0.783 µM (active)
- GI50 (OVCAR-4): 8.57 µM (inactive)
- GI50 (SK-MEL-28): 3.29 µM (inactive)
- GI50 (A498): 2.78 µM (inactive)
- GI50 (HL-60): 0.225 µM (active)
- GI50 (MOLT-4): 0.0552 µM (active)
- GI50 (NCI-H460): 0.117 µM (active)
- GI50 (SF-539): 0.0752 µM (active)
- GI50 (HOP-92): 3.14 µM (inactive)
- GI50 (RPMI-8226): 1.67 µM (inactive)
- GI50 (NCI/ADR-RES): 0.817 µM (active)
- GI50 (CAKI-1): 0.151 µM (active)
- GI50 (UO-31): 0.29 µM (active)
- GI50 (OVCAR-3): 7.78 µM (inactive)
- GI50 (MDA-MB-231): 64.6 µM (inactive)
- GI50 (NCI-H226): 0.991 µM (active)
- GI50 (IGROV-1): 7.08 µM (inactive)
- GI50 (A549): 0.513 µM (active)
- GI50 (SN12C): 0.119 µM (active)
- GI50 (HCT-15): 2.9 µM
- GI50 (ACHN): 0.0531 µM (active)
- GI50 (UACC-62): 0.0541 µM (active)
- GI50 (SNB-19): 0.267 µM (active)
- GI50 (SW-620): 1.33 µM (inactive)
- GI50 (OVCAR-8): 0.398 µM (active)
- GI50 (U-251): 0.261 µM (active)
- GI50 (PC-3): 4.49 µM (inactive)
- GI50 (SK-MEL-2): 37.6 µM (inactive)
- GI50 (DU-145): 0.0944 µM (active)
- GI50 (SK-OV-3): 0.617 µM (active)
- GI50 (CCRF-CEM): 0.0357 µM (active)
- GI50 (BT-549): 7.57 µM (inactive)
- GI50 (HCC 2998): 8.13 µM (inactive)
- GI50 (SF-268): 0.115 µM (active)
- GI50 (RXF 393): 0.76 µM (active)
- GI50 (UACC-257): 2.82 µM (inactive)
- GI50 (OVCAR-5): 6.18 µM (inactive)
- GI50 (NCI-H522): 0.991 µM (active)
- GI50 (KM12): 8.55 µM (inactive)
- GI50 (MCF7): 0.0735 µM (active)
- GI50 (M14): 0.457 µM (active)
- GI50 (NCI-H23): 0.388 µM (active)
- GI50 (T47D): 0.0346 µM (active)
- GI50 (MDA-MB-435): 3.56 µM (inactive)
- GI50 (Hs-578T): > 64.1 µM (inactive)
- GI50 (HOP-62): 0.164 µM (active)
- GI50 (LOX IMVI): 0.218 µM (active)
- GI50 (Malme-3M): 3.95 µM (inactive)
- GI50 (COLO 205): 12.1 µM (inactive)
